Values quoted from earlier work, collected in patent publication EP1897537A1, “Composition comprising an angiotensin II receptor antagonist” (Novartis AG, priority 2006, dated 2008).

Tests used:
[1] = immediate release tablet formulation (Diovan ®)
[2] = most acidic pKa; fumaric acid values at 25 °C

Row | bioavailability [1] | pKa1 [2] | Structure (SMILES)
1 | around 30% |  | CCCCC(=O)N(Cc1ccc(-c2ccccc2-c2nnn[nH]2)cc1)[C@H](C(=O)O)C(C)C [Valsartan, (S)-N-(1-carboxy-2-methylprop-1-yl)-N-pentanoyl-N-[2'-(1H-tetrazol-5-yl)biphenyl-4-ylmethyl]amine]
2 |  | about 4.2 | O=C(O)CCC(=O)O [succinic acid]
